Reference: patent publication US10323041B2, “Bicyclic derivatives, a process for their preparation and pharmaceutical compositions containing them” (LES LABORATOIRES SERVIER, priority 2015, dated 2019)
Where two headings read alike, the source gives them in different places.

Target: Mcl-1 protein (Homo sapiens, UniProt Q07820)
Experiment: Inhibition of Mcl-1 by the fluorescence polarisation technique
Type: binding
Conditions: for percentage fluorescence polarization inhibition: partial inhibitors
Method: The relative binding potency of each compound was determined via fluorescence Polarisation (FP). The method utilised a Fluorescein labelled ligand Fluorescein-βAla-Ahx-[A-REIGAQLRRMADDLNAQY (SEQ ID NO: 1)]-OH; mw 2,765) which binds to the Mcl-1 protein (such that corresponds to the UniProtKB® primary accession number: Q07820) leading to an increased anisotropy measured in milli-polarisation (mP) units using a reader. The addition of a compound which binds competitively to the same site as the ligand will result in a greater proportion of unbound ligand in the system indicated by a decrease in mP units.
Method 1: An 11 point serial dilution of each compound was prepared in DMSO and 2 μl transferred into flat bottomed, low binding, 384-well plate (final DMSO concentration 5%). 38 μl of buffer (10 mM 4-(2-hydroxyethyl)-1-piperazineethanesulfonic acid [HEPES], 150 mM NaCl, 0.05% Tween 20, pH 7.4), containing the Fluorescein labelled ligand (final concentration 1 nM) and Mcl-1 protein (final concentration 5 nM) was then added.
(§1) Assay plates were incubated ˜2 hours at room temperature before FP was measured on a […] Synergy2 reader (Ex. 528 nm, Em. 640 nm, Cut off 510 nm) and mP units calculated. The binding of increasing doses of test compound was expressed as a percentage reduction in mP compared to a window established between ‘5% DMSO only’ and ‘100% inhibition’ controls. 11-point dose response curves were plotted with XL-Fit software using a 4-Parameter Logistic Model (Sigmoidal Dose-Response Model) and the inhibitory concentrations that gave a 50% reduction in mP (IC50) were determined. Results obtained using Method 1 are presented in Table 1 below; IC50 of Mcl-1 inhibition obtained using Method 1 are not underlined.
Method 2: An 11 point serial dilution of each compound was prepared in DMSO and 2 μl transferred into flat bottomed, low binding, 384-well plate (final DMSO concentration 5%). 38 μl of buffer (20 mM Na2HPO4, 1 mM EDTA, 50 mM NaCl, pH 7.4), containing the Fluorescein labelled ligand (final concentration 10 nM) and Mcl-1 protein (final concentration 10 nM) was then added.
as §1, with “inhibition’ controls (50 μM unlabelled ligand).” for “inhibition’ controls.”, “Method 2” for “Method 1”, “are” for “are not”

[1] = Method 1 (not underlined) or Method 2 (underlined), underlining not visible, first value where cell prints two, read-out: IC50 (M) Mcl-1 FP

Chain of Mcl-1 protein (Q07820 whole entry): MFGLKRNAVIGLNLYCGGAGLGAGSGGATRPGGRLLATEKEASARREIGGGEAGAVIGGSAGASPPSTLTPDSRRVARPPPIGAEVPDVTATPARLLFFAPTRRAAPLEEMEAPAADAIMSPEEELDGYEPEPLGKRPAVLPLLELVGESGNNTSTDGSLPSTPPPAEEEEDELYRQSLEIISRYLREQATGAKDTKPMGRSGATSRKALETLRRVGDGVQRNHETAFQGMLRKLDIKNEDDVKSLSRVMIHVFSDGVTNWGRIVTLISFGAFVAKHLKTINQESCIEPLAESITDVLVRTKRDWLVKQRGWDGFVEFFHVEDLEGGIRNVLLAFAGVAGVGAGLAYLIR

Row | SMILES | IC50 [1] | other results
1 | COc1ccccc1CC(Oc1cccc2cc(-c3ccco3)n(-c3ccc(OCCN4CCN(C)CC4)c(Cl)c3C)c12)C(=O)O [Example 58, (2R)-2-{[(1Ra)-1-{3-chloro-2-methyl-4-[2-(4-methylpiperazin-1-yl)ethoxy]phenyl}-2-(furan-2-yl)-1H-indol-7-yl]oxy}-3-(2-methoxyphenyl)propanoic acid] |  | percentage fluorescence polarization inhibition (@ 10 μM test compound): 51.9% @ 10 μM
2 | CCc1c(-c2cccc(Cl)c2C)c2c(NC(Cc3ccccc3)C(=O)O)ncnc2n1C [Example 20, N-[(5Ra)-5-(3-chloro-2-methylphenyl)-6-ethyl-7-methyl-7H-pyrrolo[2,3-d]pyrimidin-4-yl]-D-phenylalanine] |  | percentage fluorescence polarization inhibition (@ 50 μM test compound): 64.8% @ 50 μM
3 | Cc1c(Cl)cccc1-c1c2n(c3ncnc(NC(Cc4ccccc4)C(=O)O)c13)CCCC2 (single isomer, unassigned) [Example 47, N-[(5Ra)-5-(3-chloro-2-methylphenyl)-6,7,8,9-tetrahydropyrimido[5,4-b]indolizin-4-yl]-D-phenylalanine] | 1.1e-05 M | 
4 | CCc1c(-c2cccc(Cl)c2C)c2c(NC(Cc3ccccc3)C(=O)O)ncnc2n1CC(F)(F)F [Example 29, N-[(5Sa)-5-(3-chloro-2-methylphenyl)-6-ethyl-7-(2,2,2-trifluoroethyl)-7H-pyrrolo[2,3-d]pyrimidin-4-yl]-D-phenylalanine] | 8.5e-06 M | 
5 | CCc1c(-c2ccc(OCCN3CCN(C)CC3)c(Cl)c2C)c2c(OC(Cc3ccccc3)C(=O)O)ncnc2n1Cc1ccccc1 [Example 40, (2R)-2-[(7-benzyl-(5Sa)-5-{3-chloro-2-methyl-4-[2-(4-methylpiperazin-1-yl)ethoxy]phenyl}-6-ethyl-7H-pyrrolo[2,3-d]pyrimidin-4-yl)oxy]-3-phenylpropanoic acid] | 8.6e-07 M | IC50 (value after '/', presumably the other FP method (Method 1 / Method 2), read-out: IC50 (M) Mcl-1 FP, second value of the cell): 3.3e-08 M
6 | COc1ccccc1-c1nccc(COc2ccccc2CC(Oc2cccc3oc(-c4ccc(F)cc4)c(-c4ccc(OCCN5CCN(C)CC5)c(Cl)c4C)c23)C(=O)O)n1 (single isomer, unassigned) [Example 63] | 1.7e-07 M | 
7 | CCc1c(-c2cccc3ccccc23)c2c(N[C@H](Cc3ccccc3)C(=O)O)ncnc2n1Cc1ccccc1 (single isomer, unassigned) [Example 13, N-[7-benzyl-6-ethyl-5-(naphthalen-1-yl)-7H-pyrrolo[2,3-d]pyrimidin-4-yl]-D-phenylalanine] | 6.6e-07 M | 
8 | Cc1c(-c2c(-c3ccc(F)cc3)oc3ncnc(O[C@H](Cc4ccccc4OCc4ccnn4C(C)(C)C)C(=O)O)c23)ccc(OCCN(C)C)c1Cl [Example 6, (2R)-3-{2-[(1-tert-butyl-1H-pyrazol-5-yl)methoxy]phenyl}-2-{[5-{3-chloro-4-[2-(dimethylamino)ethoxy]-2-methylphenyl}-6-(4-fluorophenyl)furo[2,3-d]pyrimidin-4-yl]oxy}propanoic acid] | 8.9e-09 M | 
9 | COc1ccccc1-c1nccc(COc2ccccc2CC(Oc2cccc3c2c(-c2ccc(OCCN4CCN(C)CC4)c(Cl)c2C)c(-c2ccc(F)cc2)n3C)C(=O)O)n1 (single isomer, unassigned) [Example 68] | 1.2e-06 M | 
10 | CCc1c(-c2cccc(Cl)c2C)c2c(NC(Cc3ccccc3)C(=O)O)ncnc2n1Cc1ccccc1 (single isomer, unassigned) [Example 37, N-[7-benzyl-(5Sa)-5-(3-chloro-2-methylphenyl)-6-ethyl-7H-pyrrolo[2,3-d]pyrimidin-4-yl]-D-phenylalanine] | 5.3e-07 M | 
11 | CCc1c(-c2cccc(Cl)c2C)c2c(NC(Cc3ccccc3)C(=O)O)ncnc2n1Cc1cccc2ccccc12 (single isomer, unassigned) [Example 32, N-[(5Ra)-5-(3-chloro-2-methylphenyl)-6-ethyl-7-(naphthalen-1-ylmethyl)-7H-pyrrolo[2,3-d]pyrimidin-4-yl]-D-phenylalanine] | 3.5e-06 M | 
12 | CCc1c(-c2cccc3ccccc23)c2c(N[C@H](Cc3ccccc3)C(=O)O)ncnc2n1Cc1ccccc1 (single isomer, unassigned) [Example 12, N-[7-benzyl-6-ethyl-5-(naphthalen-1-yl)-7H-pyrrolo[2,3-d]pyrimidin-4-yl]-D-phenylalanine] | 5.6e-07 M | 
